We go through 46 molecules from patent US11427556B2, “Urea derivatives as inhibitors of ASK1” (Hepagene Therapeutics (HK) Limited, priority 2017, dated 2022).

The experiment concerns the target T1, Recombinant human ASK1 kinase (Homo sapiens, UniProt Q99683).
T1 construct: purchased Invitrogen Inc
T1 sequence (Q99683 1-1374): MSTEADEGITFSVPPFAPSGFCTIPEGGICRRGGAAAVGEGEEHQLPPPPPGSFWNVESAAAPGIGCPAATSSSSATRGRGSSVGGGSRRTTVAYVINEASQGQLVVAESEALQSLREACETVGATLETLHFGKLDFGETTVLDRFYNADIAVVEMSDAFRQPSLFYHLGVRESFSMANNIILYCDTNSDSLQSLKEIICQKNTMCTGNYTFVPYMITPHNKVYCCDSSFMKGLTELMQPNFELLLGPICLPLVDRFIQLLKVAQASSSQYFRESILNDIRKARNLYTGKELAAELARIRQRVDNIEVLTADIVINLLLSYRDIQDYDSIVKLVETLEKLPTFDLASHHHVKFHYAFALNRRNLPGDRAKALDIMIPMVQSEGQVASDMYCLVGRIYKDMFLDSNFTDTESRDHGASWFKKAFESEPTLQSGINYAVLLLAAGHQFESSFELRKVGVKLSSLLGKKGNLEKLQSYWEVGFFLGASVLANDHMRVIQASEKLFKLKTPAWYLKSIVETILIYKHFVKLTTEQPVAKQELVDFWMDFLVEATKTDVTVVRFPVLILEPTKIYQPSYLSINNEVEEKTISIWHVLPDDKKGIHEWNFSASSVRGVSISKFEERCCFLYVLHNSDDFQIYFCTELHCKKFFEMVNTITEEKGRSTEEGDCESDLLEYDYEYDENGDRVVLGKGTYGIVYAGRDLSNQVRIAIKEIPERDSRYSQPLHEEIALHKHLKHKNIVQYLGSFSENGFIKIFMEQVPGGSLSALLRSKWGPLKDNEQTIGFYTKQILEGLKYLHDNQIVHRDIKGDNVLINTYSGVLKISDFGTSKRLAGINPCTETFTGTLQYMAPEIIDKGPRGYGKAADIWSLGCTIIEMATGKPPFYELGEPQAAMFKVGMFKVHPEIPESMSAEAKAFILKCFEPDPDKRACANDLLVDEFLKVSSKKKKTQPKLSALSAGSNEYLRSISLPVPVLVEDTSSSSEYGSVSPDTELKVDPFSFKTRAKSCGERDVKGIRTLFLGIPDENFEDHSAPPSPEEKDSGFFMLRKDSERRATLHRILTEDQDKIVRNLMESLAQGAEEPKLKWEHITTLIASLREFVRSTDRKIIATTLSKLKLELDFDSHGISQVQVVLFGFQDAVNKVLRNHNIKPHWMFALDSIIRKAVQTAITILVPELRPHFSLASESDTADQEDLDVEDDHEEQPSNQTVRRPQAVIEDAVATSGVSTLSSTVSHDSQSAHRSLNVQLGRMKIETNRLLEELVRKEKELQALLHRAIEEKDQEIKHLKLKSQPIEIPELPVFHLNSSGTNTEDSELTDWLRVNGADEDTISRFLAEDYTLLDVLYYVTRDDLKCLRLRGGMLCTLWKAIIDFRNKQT
Nature of the experiment: ASK1 kinase HTRF assay (HTRF KinEASE-STK, phosphorylation of biotinylated peptide substrate). The class given is biochemical. How it is done:
Reagents: Recombinant human ASK1 kinase was from Invitrogen Inc. HTRF KinEASETM-STK S3 kit was obtained from Cisbio (Bedford, Mass.). All other reagents were of the highest grade commercially available.
Assay: The assay measures the phosphorylation level of a biotinylatd peptide substrate by the ASK1 kinase using HTRF detection. ASK1 kinase assay is based on HTRF KinEASETM-STK manual from Cisbio. Test compound, 1 uM STK-substrate-biotin, 3 nM of ASK1 kinase are incubated with 1*Kinase buffer with 5 mM MgCl2 and 1 mM DTT.

The mark [1] stands for this setting: 3 nM ASK1 kinase, 1 uM STK-substrate-biotin, HTRF detection, read-out: EC50.

Like-named read-outs stand apart in the source and are kept apart here.

Usually EC50 stands for the concentration at which the effect is half-maximal. Consider `C[C@H](CO)n1cnnc1-c1cccc(NC(=O)Nc2cc(C(=O)N3CCCc4ccccc43)ccn2)n1` [Compound I-124], for which, under setting [1], the EC50 is under 50 nM. In the case of `C[C@H](CO)n1cnnc1-c1cccc(NC(=O)Nc2ccccn2)n1` [Compound I-026], under setting [1], the EC50 was under 50 nM.

For `CC(C)n1cnnc1-c1cccc(NC(=O)Nc2ccc3ccccc3n2)n1` [Compound I-067], the 50% effective concentration (EC50) was under 50 nM. Turning to `CC(C)n1cnnc1-c1cccc(NC(=O)Nc2cc(C(=O)N3CCC(C)(C)CC3)ccn2)n1` [Compound I-117], under setting [1], the EC50 was under 50 nM. Take `C[C@H](CO)n1cnnc1-c1cccc(NC(=O)Nc2cc(C(=O)N3CCNCC3)ccn2)n1` [Compound I-140]: the concentration for a half-maximal effect (EC50) was under 50 nM. As for `CC(C)n1cnnc1-c1cccc(NC(=O)Nc2cc(-c3ccc(C4CC4)nc3)ccn2)n1` [Compound I-081], the half-maximal effective concentration (EC50) under setting [1] is under 50 nM. `CC1(n2cnnc2-c2cccc(NC(=O)Nc3cc(C(=O)N4CCCCC4)ccn3)n2)CC1` [Compound I-115]: under setting [1], the EC50 is under 50 nM. Still for that read-out and setting: for `CC(C)n1cnnc1-c1cccc(NC(=O)Nc2cc(NC(=O)c3ccccc3)ccn2)n1` [Compound I-004, N-(2-(3-(6-(4-Isopropyl-4H-1,2,4-triazol-3-yl)pyridin-2-yl)ureido)pyridin-4-yl)benzamide] the value was under 50 nM. As to `CC(C)n1cnnc1-c1cccc(NC(=O)Nc2cc(C(=O)O)ccn2)n1` [Compound I-202, 2-(3-(6-(4-Isopropyl-4H-1,2,4-triazol-3-yl)pyridin-2-yl)ureido)isonicotinic acid], under setting [1], the 50% effective concentration (EC50) is under 50 nM. Regarding `CC(C)n1cnnc1-c1cccc(NC(=O)Nc2ccccn2)n1` [Compound I-025], the EC50 is under 50 nM. As to `Cc1cnc(NC(=O)Nc2cccc(-c3nncn3C(C)C)n2)cn1` [Compound I-056], the EC50 under setting [1] was under 50 nM. As for `CC(C)n1cnnc1-c1cccc(N2CCN(c3ccc(C(=O)N4CCOCC4)cn3)C2=O)n1` [Compound V-25], the concentration giving a half-maximal response (EC50) under setting [1] was under 50 nM.

Take `C[C@H](CO)n1cnnc1-c1cccc(-n2ccn(-c3ccc(N4CCOCC4)cn3)c2=O)n1` [III-10]: the EC50 under setting [1] was under 50 nM. Regarding `CC(C)n1cnnc1-c1cccc(NC(=O)Nc2ncccn2)n1` [Compound I-212], the EC50 under setting [1] was under 50 nM.

As to `CC(C)n1cnnc1-c1cccc(NC(=O)Nc2nc3ccccc3o2)n1` [Compound I-216], the EC50 under setting [1] is under 50 nM. Regarding `Cc1ccc(NC(=O)Nc2cccc(-c3nncn3C3CC3)n2)nc1` [Compound I-034], the concentration giving a half-maximal response (EC50) under setting [1] was 50 to 500 nM. `C[C@H](CO)n1cnnc1-c1cccc(-n2ccn(-c3cc(-c4ccccc4)ccn3)c2=O)n1` [III-08]: the EC50 under setting [1] fell in the range of 50 to 500 nM. `CC(=O)OC[C@@H](C)n1cnnc1-c1cccc(NC(=O)Nc2cc(C(=O)N3CCCCC3)ccn2)n1` [Compound I-012, (2R)-2-[3-[6-([[4-(Piperidine-1-carbonyl)pyridin-2-yl]carbamoyl]amino)pyridin-2-yl]-4H-1,2,4-triazol-4-yl]propyl acetate]: the 50% effective concentration (EC50) under setting [1] was in the range of 50 to 500 nM. On the same count and under the same terms, for `CC(C)n1cnnc1-c1cccc(NC(=O)Nc2ccc(-c3ccccn3)cn2)n1` [Compound I-088] the value was under 50 nM; for `CC(C)n1cnnc1-c1cccc(NC(=O)Nc2cc(N3CCN(C4CC4)CC3)ccn2)n1` [Compound I-100], under 50 nM; for `CC(C)n1cnnc1-c1cccc(NC(=O)Nc2cc(C(=O)N3CCC(N4CCOCC4)CC3)ccn2)n1` [Compound I-130], under 50 nM. For the molecule `CC(C)n1cnnc1-c1cccc(NC(=O)Nc2ccc(Br)cn2)n1` [Compound I-178], the concentration giving a half-maximal response (EC50) under setting [1] is under 50 nM.

Turning to `CCC(C)n1cnnc1-c1cccc(NC(=O)Nc2ccccn2)n1` (stereo not shown) [Compound I-028], the EC50 under setting [1] is under 50 nM. For the molecule `CC(C)n1cnnc1-c1cccc(NC(=O)Nc2ccc(-n3cnc(C4CC4)c3)cn2)n1` [Compound I-169], under setting [1], the half-maximal effective concentration (EC50) is under 50 nM. In the case of `CNc1ccnc(NC(=O)Nc2cccc(-c3nncn3C(C)C)n2)c1` [Compound I-190], the EC50 under setting [1] was under 50 nM. In the case of `COc1ccnc(NC(=O)Nc2cccc(-c3nncn3C(C)C)n2)c1` [Compound I-052], the EC50 under setting [1] was under 50 nM.

In the case of `C[C@H](CO)n1cnnc1-c1cccc(N2CCN(c3cc4ccccc4cn3)C2=O)n1` [Compound V-04], under setting [1], the EC50 is under 50 nM. On to `CC(C)n1cnnc1-c1cccc(NC(=O)Nc2ccc(N3CCOCC3)cn2)n1` [Compound I-093], for which the EC50 under setting [1] was under 50 nM. In the case of `Cc1cccc(NC(=O)Nc2cccc(-c3nncn3C(C)C)n2)n1` [Compound I-040], under setting [1], the EC50 is under 50 nM. As for `C[C@H](CO)n1cnnc1-c1cccc(N2CCN(c3ccc(C(=O)N4CCOCC4)cn3)C2=O)n1` [Compound V-26], under setting [1], the 50% effective concentration (EC50) is under 50 nM.

Turning to `C[C@H](CO)n1cnnc1-c1cccc(NC(=O)Nc2cc(C(=O)Nc3ccccc3)ccn2)n1` [Compound I-153], the half-maximal effective concentration (EC50) under setting [1] is under 50 nM. For the molecule `Cc1ccc(-n2ccn(-c3cccc(-c4nncn4C(C)C)n3)c2=O)c(F)c1` [III-01, 3-(2-Fluoro-4-methylphenyl)-1-(6-(4-isopropyl-4H-1,2,4-triazol-3-yl)pyridin-2-yl)-1H-imidazol-2(3H)-one], under setting [1], the EC50 was in the range of 50 to 500 nM.

As for `CC(C)n1cnnc1-c1cccc(NC(=S)Nc2ccccn2)n1` [VI-01, 1-(6-(4-Isopropyl-4H-1,2,4-triazol-3-yl)pyridin-2-yl)-3-(pyridin-2-yl)thiourea], the half-maximal effective concentration (EC50) under setting [1] lay in the range of 50 to 500 nM. For `Cc1ccc(NC(=O)Nc2cccc(-c3nncn3C(C)C)n2)cn1` [Compound I-041], the EC50 under setting [1] is 50 to 500 nM.

For `CC(C)n1cnnc1-c1cccc(N2CCN(c3ccc(-c4ccccc4)cn3)C2=O)n1` [Compound V-05], the EC50 under setting [1] was under 50 nM. For `CNc1ccc(NC(=O)Nc2cccc(-c3nncn3C(C)C)n2)nc1` [Compound I-189], the concentration for a half-maximal effect (EC50) under setting [1] was under 50 nM. With `CC(C)n1cnnc1-c1cccc(NC(=O)Nc2cc(NS(=O)(=O)c3ccccc3)ccn2)n1` [Compound I-015, 3-(4-Benzenesulfonamidopyridin-2-yl)-1-[6-[4-(propan-2-yl)-4H-1,2,4-triazol-3-yl]pyridin-2-yl]urea], under setting [1], the 50% effective concentration (EC50) is under 50 nM.

For `C[C@H](CO)n1cnnc1-c1cccc(NC(=O)Nc2cc(N3CCC(N4CCOCC4)CC3)ccn2)n1` [Compound I-107], the concentration for a half-maximal effect (EC50) under setting [1] is under 50 nM. Take `C[C@H](CO)n1cnnc1-c1cccc(NC(=O)Nc2cc(C(=O)N3CCCC[C@@H]3C)ccn2)n1` [Compound I-119]: the concentration for a half-maximal effect (EC50) under setting [1] is under 50 nM.

For the molecule `CC(C)n1cnnc1-c1cccc(NC(=O)Nc2cc(S(N)(=O)=O)ccn2)n1` [Compound I-205], under setting [1], the concentration giving a half-maximal response (EC50) was under 50 nM. Still for that read-out and setting: the figure for `Cc1cnc(NC(=O)Nc2cccc(-c3nncn3C(C)C)n2)nc1` [Compound I-211] is under 50 nM. Take `CC(C)n1cnnc1-c1cccc(NC(=O)Nc2cccc(Br)n2)n1` [Compound I-179]: the EC50 under setting [1] is under 50 nM.

Consider `Cc1ccc(N(C)C(=O)Nc2cccc(-c3nncn3C(C)C)n2)c(F)c1` [II-01, 1-(2-Fluoro-4-methylphenyl)-3-(6-(4-isopropyl-4H-1,2,4-triazol-3-yl)pyridin-2-yl)-1-methylurea], for which, under setting [1], the EC50 is 500 to 5000 nM. On the same count and under the same terms, the figure for `CC(=O)OC[C@@H](C)n1cnnc1-c1cccc(N2CCN(c3ccc(N4CCOCC4)cn3)C2=O)n1` [Compound V-19] is 50 to 500 nM; for `CC(C)n1cnnc1-c1cccc(NC(=O)Nc2cc(-c3cccnc3)ccn2)n1` [Compound I-086] it is under 50 nM. As for `CC(C)n1cnnc1-c1cccc(N2CCN(c3ccc(-c4ccncc4)cn3)C2=O)n1` [Compound V-07], the EC50 under setting [1] was under 50 nM.
